The text below walks through data of patent publication US8569242B2, “Method of treating degenerative disorders of the nervous system” (The Regents of the University of California, priority 2005, dated 2013).

For experiment [1], the system named is Mac-1 overexpressing cells. To be noted: reference (37); cited from earlier work.
A further experiment has as its system primary microglia. The experiment can be described thus: Morphometry of microglia activation (Isolectin B4 staining, cell size). Type of experiment: cell-based, mouse. To be noted: for effect on LPS-mediated microglia activation: LPS 1 μg/mL. Here is the method: Culture of primary microglia cells. Microglia were isolated from cultures of mixed cortical cells as described (59). In brief, cortices from P1 mice were isolated and digested with trypsin (0.4%) for 20 minutes at 37° C. Cells from 4 pups were plated onto PDL-coated 75 cm2 tissue-culture flasks. The culture medium (DMEM, 10% heat-inactivated FBS, and 1% Pen/Strep) was changed on day 2. After 2-3 weeks in culture, the microglia were removed by the addition of 12 mM lidocaine (Sigma-Aldrich, St. Louis, Mo.) and orbital shaking (180 rpm) for 20 minutes at 37° C. The cells were centrifuged (350×G) and the pellet was resuspended in complete medium and plated onto PDL-coated tissue culture dishes. Microglia cell cultures were >95% pure as determined with three different markers, IsoB4, IBA-1 and CD11b. To immobilize fibrinogen, tissue culture dishes were incubated overnight with 50 μg/mL fibrinogen (Calbiochem, San Diego, Calif.) in 20 mM Tris (pH 7.5) and 0.1 M NaCl at 37° C. for all fibrinogen treatments. To serve as positive controls, LPS (Sigma-Aldrich, St. Louis, Mo.) was added to the media at 1 μg/mL.
Morphometry. Primary microglia were used for all morphologic analysis. Cells were plated on coated fibrinogen or in the presence of LPS for 72 hours. Microglia were fixed with methanol and immunostained with Isolectin B4 (1:300, Sigma-Aldrich, St. Louis, Mo.). Activated microglia were quantificated as those cells larger than 2,000 μm^2. Blocking experiments involved the daily administration of rat anti-CD11b (10 μg/mL, eBioscience, San Diego, Calif.), γ^377-395 peptide (200 μM) or rat IgG (10 μg/mL, Jackson ImmunoResearch Laboratories, West Grove, Pa.). Results were obtained from six separate experiments performed in duplicates. 250 cells per condition were counted for each individual experiment. Statistical calculations were made by using Student's t test.

For experiment [2], the system named is PLP139-151 EAE in SJL/J mice. In words: Remitting-relapsing PLP139-151 EAE, intranasal γ^377-395 peptide after first paralytic episode. Type of experiment: in vivo, mouse. Here is the method: Induction of EAE. EAE was induced in 6 week old female SJL/J or C57BL/6 mice by subcutaneous immunization with 150 μg PLP139-151 (HSLGKWLGHPDKF) (SEQ ID NO: 5). American Peptide Company and Azco Pharmchem, San Jose, Calif.) or 50 μg MOG35-55 ([…]) (SEQ ID NO: 6), Sigma-Aldrich, St. Louis, Mo.) in complete Freund's adjuvant (Sigma-Aldrich, St. Louis, Mo.) supplemented with […] heat inactivated mycobacterium tuberculosis H37Ra (Difco Laboratories, Detroit, Mich.). Mice were injected intravenously with 200 ng pertussis toxin (Sigma-Aldrich, St. Louis, Mo.) on days 0 and 2 of the immunization. Mice were scored daily. 0: no symptoms, 1: loss of tail tone, 2: ataxia, 3: hindlimb paralysis, 4: hindlimb and forelimb paralysis, 5: moribund Data are represented as the mean clinical score and are mean±SEM. Statistical calculations were made by using Student's t test.
Intranasal γ^377-395 peptide administration. Fibrinogen γ^377-395 peptide (YSMKETTMKIIPFNRLSIG) (SEQ ID NO: 2), Azco Pharmchem, San Jose, Calif.) was resuspended in 0.9% NaCl at a concentration of 3 mg/mL. Peptides were aliquoted as single doses and stored at […]. Mice were administered 5 μL of peptide or 0.9% NaCI, as a control, in each nare daily using a P10 micropipettor (Gilson, Middleton, Wis.) beginning after the peak of the first paralytic episode.
Histopathology. Histopathologic analysis and quantification of inflammation and demyelination in mouse tissue was performed on cryostat or paraffin sections as described (57). Sections were stained with luxol fast blue and nuclear red. Spinal cord sections were fixed with 2% PFA for 10 minutes at 4° C. and immunostained with a sheep anti-fibrinogen antibody (1:200, US Biological, Swampscott, Mass.), rat anti-CD11b (1:5, Chemicon), von Willebrand Factor (1:1000, Dakocytomation, Glostrup, Denmark), iNOS (polyclonal Chemicon, Temecula, Calif., 1:750), Mac-3 (rat-anti-mouse, Pharmingen, San Diego, Calif., 1:200), CNPase (monoclonal, Sternberger monoclonals, Lutherville, Md., 1:2000). For human MS, paraffin embedded material was obtained from the Archives of the Center for Brain Research, Medical University of Vienna. Double immunofluorescence was performed with antibodies against CD68 and fibrin. Images were collected using an Axioplan 2 Zeiss microscope with an Axiocam HRc camera or were processed for confocal microscopy using Olympus and Zeiss confocal microscopes.
Rotarod behavior test. The rotarod assay was performed on a TSE accelerating Rotarod apparatus (TSE Technical and Scientific Equipment GmbH) as described (58). Rotarod assays were conducted with a 300 second maximum time limit and means were collected for at least three trials. Statistical calculations were made by using Students t test.

The target in a further experiment is Mac-1 (Homo sapiens, UniProt P11215). To be noted: from cited biochemical studies; cited from earlier work.
[3] abbreviates: 30 μg i.n. daily, day 30 after immunization.

Regarding “tyr-ser-met-lys-lys-thr-thr-met-lys-ile-ile-pro-phe-asn-arg-leu-thr-ile-gly (YSMKKTTMKIIPFNRLTIG) (listed as Homo sapiens) [γ^377-395 peptide]”, the “concentration shown to inhibit adhesion of Mac-1 overexpressing cells to immobilized fibrinogen” value in experiment [1] is 200 µM. For the same substance, the “effect on LPS-mediated microglia activation” value in the experiment on primary microglia was “did not inhibit”; with primary microglia (listed as γ^377-395) it was “has no effect”. In addition, the “% of activated microglia in fibrinogen treated cells in the presence of blocker” value with primary microglia (M1/70 10 μg/mL or γ^377-395 peptide 200 μM daily, fibrinogen alone 71±4.9%) turned out to be 38.3±9.8%. Besides, the “fibrinogen-induced morphologic activation of microglia (in words)” value in the experiment on primary microglia (added to microglia on immobilized fibrinogen) is listed as “attenuated”. The “effect on activation state of untreated microglia” value in the experiment with primary microglia (peptide 200 μM) was “did not affect”. In addition, in experiment [2] (30 μg i.n. daily, after the first relapse on day 29), the “increase of motor functions vs control mice” value was determined as 1.4 fold. For the same substance, the “reduction in Mac-3 (microglia/macrophage marker) immunostaining” value in experiment [2] (setting [3]) was 2 fold. Moreover, in experiment [2] (setting [3]), the “reduction in iNOS immunostaining” value was found to be 4.2 fold. Moreover, the “relapse of paralysis (clinical score)” value in experiment [2] (30 μg intranasally daily after first paralytic episode, n=14 vs control n=13) is “did not show a relapse”. Moreover, in experiment [2] (peptide-treated vs control), the T cell infiltration result is “no major differences”. Besides, the “blocking of fibrin(ogen) binding to Mac-1 (CD11b)” value in the experiment with Mac-1 was “blocks”.
